These results are taken from PubChem BioAssay (NCI).

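Cultured in 96-well plates, cells were exposed to test compound for 48 hours across five concentrations. TGI denotes the concentration required for complete inhibition of growth.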

Common to all, as to test: NCI anticancer screen, dose series, 48 h
The subject of experiment [1] is 786-0 renal.
Experiment [2] has as its system CCRF-CEM leukemia.
Experiment [3] concerns OVCAR-3 ovarian.
Experiment [4] has as its system SNB-75 CNS.
Experiment [5] deals with MDA-N.
Experiment [6] deals with HOP-92 NSCLC.
Experiment [7] concerns UACC-257 melanoma.
For experiment [8], the system named is COLO 205 colon.
The test system of experiment [9] is K-562 leukemia.
Experiment [10] concerns RXF 393 renal.
The test system of experiment [11] is SK-MEL-2 melanoma.

For `CC(=O)NC1C(OCc2ccccc2)OC(CO)C(O)C1OC(C)C(=O)NC(C)C(=O)NC(CCC(=O)NCCCNc1c2ccccc2nc2cccc([N+](=O)[O-])c12)C(N)=O` (stereo not given), the TGI was more than 100 µM in [1]; more than 100 µM in experiment [2]; 6.53 µM in [3]; 9.92 µM in experiment [4]; 2.77 µM in experiment [5]; 5.8 µM in [6]. The TGI came out at 4.71 µM in [7], 2.34 µM in [8], 11.1 µM in experiment [9] and 3.04 µM in experiment [10].

As for `CCSc1n/c(=C\c2ccco2)c2nnnn12`, the TGI in experiment [11], in experiment [1], in experiment [2], in experiment [3], in [4] and in [5] was more than 100 µM in each case. In addition, the TGI in experiment [6], in experiment [7], in [8] and in experiment [10] was more than 100 µM in each case.

As to `CC1CC(N)=Nc2ccccc2N1` (stereo not given), the TGI in experiment [11], in experiment [1], in experiment [2], in [3], in [4] and in experiment [5] was more than 100 µM each time. In addition, the TGI in experiment [7], in [8], in experiment [9] and in experiment [10] was more than 100 µM each time.

`NC(Cc1cccc([N+](=O)[O-])c1)C(=O)O` (stereo not given): the TGI in experiment [11], in experiment [1], in [2], in experiment [3], in experiment [5] and in experiment [6] was more than 100 µM each time. Besides, the TGI in [7], in [8], in experiment [9] and in [10] was more than 100 µM each time.

With `c1ccc2sc(C3(N4CCCC4)CCCCCC3)cc2c1`, the TGI stood at 27.7 µM in experiment [1]; 24.2 µM in [2]; 27.6 µM in [3]; 34.5 µM in experiment [4]; 32.1 µM in experiment [5]; 30 µM in experiment [6]. The TGI in experiment [7] came to 31 µM; in experiment [8], 30.4 µM; in [9] it was 38.5 µM; in experiment [10] it was 25.7 µM.

Consider `C[C@@H]1C[C@H]2[C@@H]3CCC4=CC(=O)C=C[C@]4(C)[C@@]3(Cl)[C@@H](Cl)C[C@]2(C)[C@@]1(O)C(=O)COP(=O)(O)O`, for which the TGI in experiment [11], in [1], in [3], in experiment [4], in experiment [5] and in [6] was more than 100 µM each time. For the same molecule, the TGI in experiment [7], in [8], in experiment [9] and in [10] was more than 100 µM throughout.

`S=C(c1c[nH]c2ccccc12)N1CCOCC1`: the TGI was more than 100 µM in [11]; more than 100 µM in experiment [1]; more than 100 µM in [2]; more than 100 µM in experiment [3]; 74 µM in experiment [4]; more than 100 µM in experiment [5]. The TGI in experiment [7], in experiment [8], in experiment [9] and in experiment [10] was more than 100 µM in each case.

For the molecule `COc1ccc(C(=O)Sc2c(-c3ccccc3)c(=O)n(-c3ccccc3)c(=S)n2-c2ccccc2)cc1`, the TGI is more than 100 µM in [1]; more than 100 µM in experiment [2]; more than 100 µM in experiment [3]; more than 100 µM in experiment [4]; more than 100 µM in experiment [5]; 71.2 µM in [6]. Further, the TGI is more than 100 µM in [7], more than 100 µM in experiment [8], more than 100 µM in experiment [9] and 98.4 µM in [10].

Regarding `CC(=O)OCc1cc(CCC(=O)NCCNc2c3ccccc3nc3ccccc23)cc(COC(C)=O)c1O[Si](C)(C)C(C)(C)C`, the TGI was found to be 23.8 µM in [11]; 31.3 µM in experiment [1]; 20.5 µM in experiment [2]; 5.68 µM in experiment [3]; 21.9 µM in experiment [5]; 22.7 µM in [6]. For the same molecule, the TGI in experiment [7] stood at 14.6 µM; in experiment [8] it was 15.9 µM; in experiment [9], 6.49 µM; in [10], 9.37 µM.

Turning to `O=c1[nH]c(-c2ccc3ccccc3c2)nc2ccccc12`, the TGI was more than 100 µM in [11]; more than 100 µM in experiment [1]; more than 100 µM in experiment [3]; 28.6 µM in experiment [4]; more than 100 µM in experiment [5]; more than 100 µM in experiment [6]. The TGI in experiment [7], in experiment [8], in experiment [9] and in [10] was more than 100 µM throughout.

As for `Cc1cc(N(CCC#N)CCC#N)ccc1/C(N=Nc1ccc([N+](=O)[O-])cc1)=N\NC(=O)c1cc(Cl)ccc1C(=O)c1ccccc1`, the TGI in experiment [11] is 57.8 µM; in experiment [1] it was 52.7 µM; in experiment [2], 12.5 µM; in experiment [3], more than 100 µM; in experiment [4] it was more than 100 µM; in experiment [5], more than 100 µM. For the same molecule, the TGI in experiment [7] is more than 100 µM; in experiment [8], 40.6 µM; in experiment [9] it was more than 100 µM; in experiment [10] it was 57.9 µM.

`CC1=C(C#N)C(C#N)(C#N)C(NN(C)C)C1` (stereo not given): the TGI was 39.5 µM in experiment [11]; 25.6 µM in experiment [1]; more than 100 µM in experiment [2]; 40.3 µM in [4]; 21.9 µM in [5]; 30.8 µM in experiment [6]. The TGI in [7] is 26.4 µM; in experiment [8] it was 16.1 µM; in experiment [9], 60.8 µM; in experiment [10], 31.3 µM.

Regarding `CCn1c(-c2cc(OC)cc(OC)c2)nc2c1C(=O)c1ccccc1C2=O`, the TGI in experiment [1], in experiment [2], in experiment [3], in experiment [4], in experiment [5] and in experiment [6] was more than 100 µM throughout. The TGI in experiment [7] was more than 100 µM; in experiment [8], more than 100 µM; in experiment [9], more than 100 µM; in [10], 69.2 µM.
